Values of other authors in publication doi:10.1101/2025.09.30.679517v1 (bioRxiv, 2025).

Settings: human, in vivo, po

## COc1ccc2c(c1)[C@]13CCCC[C@@H]1[C@H](C2)N(C)CC3 [dextromethorphan]
  primary endpoints: reached all primary endpoints
  tolerability: well-tolerated by patients
